These results are taken from PMC6150025, “Novel Mixed-Type Inhibitors of Protein Tyrosine Phosphatase 1B. Kinetic and Computational Studies” (Molecules : A Journal of Synthetic Chemistry and Natural …, 2017).

In one data set the target is T1, PTP1B (Homo sapiens, UniProt P18031).
T1 construct: encodes for PTP1B (residues 1–321); inferred from the pET28A vector, NdeI/BamHI cloning and Ni-agarose purification) (N); made in house; host or cells: E. coli BLR
T1 sequence (P18031 1-321): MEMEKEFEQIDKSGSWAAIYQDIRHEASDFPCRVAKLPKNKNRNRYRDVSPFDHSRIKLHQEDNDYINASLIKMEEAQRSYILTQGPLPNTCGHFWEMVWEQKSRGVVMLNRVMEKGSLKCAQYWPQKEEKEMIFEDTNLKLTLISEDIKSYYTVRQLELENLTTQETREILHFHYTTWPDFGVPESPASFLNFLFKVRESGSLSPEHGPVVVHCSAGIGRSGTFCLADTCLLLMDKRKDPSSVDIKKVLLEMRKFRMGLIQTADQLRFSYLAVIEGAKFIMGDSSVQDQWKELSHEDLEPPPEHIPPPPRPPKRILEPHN
In words: PTP1B enzymatic inhibition assay (pNPP substrate). It is filed as biochemical. To be noted: for Ki: Lineweaver-Burk analysis, mixed type model; for Inhibition Type: Lineweaver-Burk plots; for IC50: curves at different concentration of each compound; for Vmax / Km: from fit of the kinetic data for each inhibitor; for α: mixed type inhibition model; for Km: pNPP. The procedure:
The PTP1B activity was measured based on the Goldstein method. The assay was performed with a final reaction volume of 500 µL in HEPES buffer (50 mM HEPES, 1mM DTT, 2 mM EDTA and 150 mM NaCl, pH 7.0), DMSO (10%) and p-nitrophenol phosphate (pNPP) as substrate (50 mM), the reaction was started with the PTP1B (1.5 µg/mL). After 30 min of incubation at 37 °C, the reaction was stopped by the addition of 500 µL of NaOH 5N reading the absorbance at 405 nm. The number of hydrolyzed moles of pNPP was determined using the molar extinction coefficient of the product pNP (18,500 M^−1 cm^−1).
Inhibition assays were performed under the above described conditions, adding to the reaction each one of the molecules at a final concentration of 200 µM. The concentration that inhibits 50% (IC50) of the PTP1B activity was determined through curves at different concentration of each compound, adjusting the data to the equation reported elsewhere. The inhibition type and constant were obtained by the measurement of the initial velocities of hydrolysis varying the substrate concentration in a range of 2–30 µM, in absence or presence of fixed concentrations of each inhibitor. For compound 1 the concentrations used were 3, 6, 10 and 20 µM; in the case of compound 2 were 2, 4, 6, 8, and 10 µM; and for compound 3 were 20, 50, 70 and 90 µM. The experimental data were analyzed through the Lineweaver-Burk plot using the software Sigma Plot V12.3 (Systat Software, Inc., San Jose, CA, USA).

The mark [1] stands for this setting: 200 µM compound, pNPP 50 mM, 30 min, 37 °C.

For `COc1cc(C(CC(=O)O)CC(=O)N2CCC(n3cccc3)CC2)cc(OC)c1OC` (stereo not shown) [5-oxo-5-[4-(1H-pyrrol-1-yl)piperidino]-3-(3,4,5-trimethoxyphenyl)pentanoic acid], the “% Inhibition (200 µM)” value on PTP1B (Table S1, 200 µM compound) is on record as 38%.

As for `O=C(O)c1ccc2[nH]c3c(c2c1)CCCC3` [6,7,8,9-Tetrahydro-5h-carbazole-3-carboxylic acid], at PTP1B (Table S1, 200 µM compound), the “% Inhibition (200 µM)” value is 32%.

Consider `Cn1c(SCCn2ccnc2)nc2ccc(Cl)cc21` [6-chloro-2-{[2-(1H-imidazol-1-yl)ethyl]sulfanyl}-1-methyl-1H-benzimidazole], for which, on PTP1B (Table S1, 200 µM compound), the “% Inhibition (200 µM)” value came out at 32%.

In the case of `O=C1COc2cc(O)ccc21` [6-hydroxy-2,3-dihydrobenzo[b]furan-3-one], on PTP1B (Table S1, 200 µM compound), the “% Inhibition (200 µM)” value was determined as 37%.

For `OCc1ccccc1N1CCOCC1` [(2-morpholinophenyl)methanol], the inhibition at 200 µM at PTP1B (Table S1, 200 µM compound) came out at 44%.

As to `CSc1nc2cc(Cl)c(C(=O)Nc3nc4cc(Oc5cccc(Cl)c5Cl)c(Cl)cc4[nH]3)cc2n1C` [Compound 1, 5-Chloro-N-[6-chloro-5-(2,3-dichlorophenoxy)-1H-benzimidazol-2-yl]-1-methyl-2-(methylthio)-1H-benz-imidazole-6-carboxamide], the inhibition at 200 µM at PTP1B (setting [1]) was 100%. For the same compound, at PTP1B, the Ki came to 5.2 µM, the “Inhibition Type” value is “Mixed”, the IC50 amounted to 7.5 µM and the Vmax was 8.8 µmol/min/mg. At PTP1B, the α worked out at 1.4 and the Km came to 6.7 mM.

Regarding `O=C(CSc1nc2cc(Oc3cccc4ccccc34)c(Cl)cc2[nH]1)Nc1nccs1` [Compound 2, 2-[6-Chloro-5-(1-naphthalyloxy)-1H-benzimidazol-2-yl]thio-N-(thiazol-2-yl)acetamide], on PTP1B (setting [1]), the inhibition at 200 µM turned out to be 99%. Also, at PTP1B, the inhibition constant Ki amounted to 4.2 µM, the “Inhibition Type” value is reported as “Mixed”, the concentration for half-maximal inhibition (IC50) was found to be 8.4 µM and the maximum rate (Vmax) is recorded as 16 µmol/min/mg. Also, at PTP1B, the α amounted to 2.9 and the Km was determined as 6.8 mM.

On to `O=C(Nc1nc2cc(Oc3cccc(Cl)c3Cl)c(Cl)cc2[nH]1)C(F)(F)F` [Compound 3, N-[6-Chloro-5-(2,3-dichlorophenoxy)-1H-benzimidazol-2-yl]-2,2,2-trifluoroacetamide], for which the inhibition at 200 µM at PTP1B (setting [1]) is 92%. For the same compound, at PTP1B, the Ki came to 41.3 µM, the “Inhibition Type” value is “Mixed”, the IC50 is 31.3 µM and the Vmax is 10 µmol/min/mg. In addition, on PTP1B, the α came to 3.3 and the Michaelis-Menten constant (Km) came to 4.1 mM.

Consider `O=C(CSc1nnnn1-c1ccc(O)cc1)c1ccc2c(c1)OCO2` [Compound 4, 1-(1,3-benzodioxol-5-yl)-2-{[1-(4-hydroxyphenyl)-1H-1,2,3,4-tetraazol-5-yl]sulfanyl}-1-ethanone], for which, on PTP1B (setting [1]), the inhibition at 200 µM is 88%.

Take `CN(C)S(=O)(=O)Oc1ccc(-c2noc(-c3ccc(Oc4cc(Cl)cc(Cl)c4)o3)n2)cc1` [Compound 5, 4-{5-[5-(3,5-dichlorophenoxy)-2-furyl]-1,2,4-oxadiazol-3-yl}phenyl-N,N-dimethylsulfamate]: the inhibition at 200 µM on PTP1B (setting [1]) is 85%.

In the case of `CCCc1cc(=O)oc2cc(OC(C)C(=O)NNS(=O)(=O)c3cccc(C(F)(F)F)c3)ccc12` (stereo not shown) [Compound 6, N′1-{2-[(2-oxo-4-propyl-2H-chromen-7-yl)oxy]propanoyl}-3-(trifluoromethyl)benzene-1-sulfonohydrazide], the inhibition at 200 µM on PTP1B (setting [1]) turned out to be 84%.

For the compound `COc1cc2nc(SCC(=O)Nc3ccc(F)c(Cl)c3)n(-c3ccccc3)c(=O)c2cc1OC` [Compound 7, N-(3-chloro-4-fluorophenyl)-2-[(6,7-dimethoxy-4-oxo-3-phenyl-3,4-dihydro-2-quinazolinyl)sulfanyl]acetamide], the inhibition at 200 µM at PTP1B (setting [1]) was 80%.

Take `CCCCCc1ccc(S(=O)(=O)Nc2ncccc2OCc2cc(F)cc(F)c2)cc1` [Compound 8, N-{3-[(3,5-difluorobenzyl)oxy]pyridin-2-yl}-4-pentylbenzenesulfonamide]: the inhibition at 200 µM on PTP1B (setting [1]) is 74%; on PTP1B (Table S1, 200 µM compound) it was 64%.

`CC(=O)Nc1nc2cc(Oc3cccc(Cl)c3Cl)c(Cl)cc2n1C` [Compound 9, N-[6-Chloro-5-(2,3-dichlorophenoxy)-1-methyl-1H-benzimidazol-2-yl]acetamide] yielded a melting point of 237.5 to 238.9 °C. The inhibition at 200 µM at PTP1B (setting [1]) is 70%.

Turning to `C[S+]([O-])c1nc2cc(Cl)c(Oc3cccc4ccccc34)cc2[nH]1` (stereo not shown) [Compound 10], the inhibition at 200 µM at PTP1B (setting [1]) amounted to 65%.

Turning to `Cc1cc(-c2nn(C)c(=O)c3ccccc23)cc(C)c1OCC(=O)NNC(=O)Nc1ccccc1` [N1-phenyl-2-{2-[2,6-dimethyl-4-(3-methyl-4-oxo-3,4-dihydrophthalazin-1-yl)phenoxy]acetyl}hydrazine-1-carboxamide], the “% Inhibition (200 µM)” value on PTP1B (Table S1, 200 µM compound) was 52%.

With `COc1cc(C=NNC(=O)CSCc2c(C)c(C)c(C)c(C)c2C)cc(OC)c1OC` [N'1-(3,4,5-trimethoxybenzylidene)-2-[(2,3,4,5,6-pentamethylbenzyl)thio]ethanohydrazide], on PTP1B (Table S1, 200 µM compound), the “% Inhibition (200 µM)” value is 63%.

Consider `O=C(NNS(=O)(=O)c1cc(C(F)(F)F)cc(C(F)(F)F)c1)c1cnn(-c2ccccc2)c1C(F)(F)F` [N'1-{[1-phenyl-5-(trifluoromethyl)-1H-pyrazol-4-yl]carbonyl}-3,5-di(trifluoromethyl)benzene-1-sulfonohydrazide], for which, at PTP1B (Table S1, 200 µM compound), the “% Inhibition (200 µM)” value is recorded as 45%.

For the compound `CN(C)S(=O)(=O)Oc1ccc(-c2noc(-c3ccc(OC(F)(F)F)cc3)n2)cc1` [N,N-dimethyl(4-{5-[4-(trifluoromethoxy)phenyl]-1,2,4-oxadiazol-3-yl}phenyl)sulfamate], the “% Inhibition (200 µM)” value at PTP1B (Table S1, 200 µM compound) is given as 38%.

As for `O=S(=O)(c1ccc(NC(=S)Nc2ccc3c(c2)OCO3)cc1)N1CCCCC1` [N-(1,3-benzodioxol-5-yl)-N'-[4-(piperidinosulfonyl)phenyl]thiourea], the “% Inhibition (200 µM)” value on PTP1B (Table S1, 200 µM compound) is given as 32%.

For the compound `CSc1nc2cc(C(=O)Nc3nc4cc(Oc5cccc(Cl)c5Cl)c(Cl)cc4[nH]3)ccc2n1C` [N-[6-chloro-5-(2,3-dichlorophenoxy)-1H-benzimidazol-2-yl]-1-methyl-2-(methylsulfanyl)-1H-benzimidazole-5-carboxamide], the “% Inhibition (200 µM)” value at PTP1B (Table S1, 200 µM compound) worked out at 42%.

As for `COC(=O)c1cccc2nc(Cc3ccc([N+](=O)[O-])cc3)sc12` [methyl 2-[(4-nitrophenyl)methyl]-1,3-benzothiazole-7-carboxylate], the “% Inhibition (200 µM)” value at PTP1B (Table S1, 200 µM compound) is 64%.

With `COC(=O)c1cc(S(=O)(=O)NCC2CN(Cc3ccccc3)CN(Cc3ccccc3)C2)oc1C` [methyl 5-({[(1,3-dibenzylhexahydro-5-pyrimidinyl)methyl]amino}sulfonyl)-2-methyl-3-furoate], the “% Inhibition (200 µM)” value on PTP1B (Table S1, 200 µM compound) was 50%.

For the compound `COC(=O)c1cc2nc(SCC(=O)Nc3ncc([N+](=O)[O-])s3)[nH]c2cc1Cl` [methyl 6-chloro-2-({2-[(5-nitro-1,3-thiazol-2-yl)amino]-2-oxoethyl}sulfanyl)-1H-benzimidazole-5-carboxylate], the “% Inhibition (200 µM)” value at PTP1B (Table S1, 200 µM compound) came to 63%.

On to `COC(=O)c1cc2nc(SCC(=O)Nc3ccc([N+](=O)[O-])cn3)[nH]c2cc1Cl` [methyl 6-chloro-2-({2-[(5-nitropyridin-2-yl)amino]-2-oxoethyl}sulfanyl)-1H-benzimidazole-5-carboxylate], for which the “% Inhibition (200 µM)” value at PTP1B (Table S1, 200 µM compound) is 63%.

Turning to `COC(=O)c1c(Cl)ccc2nc(Cc3ccc([N+](=O)[O-])cc3)sc12` [methyl 6-chloro-2-[(4-nitrophenyl)methyl]-1,3-benzothiazole-7-carboxylate], the “% Inhibition (200 µM)” value on PTP1B (Table S1, 200 µM compound) came to 56%.

In general, inhibition refers to the drop in the measured response relative to a control, in per cent. The term Ki denotes the equilibrium dissociation constant of an inhibitor or competing ligand from its target. Usually IC50 stands for the concentration needed to halve the response being measured. One may read the Vmax as the rate approached at saturating substrate. As a reminder, the Km is the substrate concentration at which the rate is half of its maximum. The term melting point denotes the temperature of the solid-liquid transition.
